# Measurements from patent publication US20110039779A1, “IGF-1R BINDING PROTEINS AND ANTAGONISTS” (priority 2007, published 2011).
# Values joined by “and” are separate entries in the source; they are usually repeats but may differ in a detail not shown here. Equal values may be shown once. Read-outs that look alike come from different tables or passages of the source. Where a SMILES comes first, the peptide text is derived from it.
# Experiments:
# [1] = molecular target: T1, His-tagged soluble recombinant human IGF-IR (srhIGF-1R-his) (Homo sapiens, UniProt P08069); assay: ALPHAScreen competition binding assay, biotinylated hIGF-1
# T1 construct: The extra-cellular domain of IGF-1R was obtained as a recombinant protein from R&D Systems; purchased R&D Systems, Inc., Minneapolis, Minn
# T1 sequence (P08069 31-736 limits assumed): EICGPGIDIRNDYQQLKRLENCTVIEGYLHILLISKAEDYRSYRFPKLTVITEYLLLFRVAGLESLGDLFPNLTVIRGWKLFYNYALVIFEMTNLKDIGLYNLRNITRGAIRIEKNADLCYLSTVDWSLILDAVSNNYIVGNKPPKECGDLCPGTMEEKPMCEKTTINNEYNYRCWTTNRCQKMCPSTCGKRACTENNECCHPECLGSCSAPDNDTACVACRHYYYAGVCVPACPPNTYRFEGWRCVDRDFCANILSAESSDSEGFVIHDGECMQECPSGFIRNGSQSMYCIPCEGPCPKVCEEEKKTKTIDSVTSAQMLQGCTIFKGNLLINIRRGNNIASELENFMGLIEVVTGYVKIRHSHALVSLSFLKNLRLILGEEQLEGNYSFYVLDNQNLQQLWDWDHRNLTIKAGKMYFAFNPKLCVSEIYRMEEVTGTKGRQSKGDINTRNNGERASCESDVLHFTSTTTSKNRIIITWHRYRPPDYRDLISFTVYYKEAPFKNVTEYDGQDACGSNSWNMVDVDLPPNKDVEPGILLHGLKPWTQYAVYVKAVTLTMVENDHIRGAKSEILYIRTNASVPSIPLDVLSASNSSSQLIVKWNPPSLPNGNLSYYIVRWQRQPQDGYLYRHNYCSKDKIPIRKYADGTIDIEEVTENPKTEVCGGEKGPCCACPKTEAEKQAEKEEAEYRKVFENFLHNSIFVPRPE
# T1 sequence (P08069 741-935 limits assumed): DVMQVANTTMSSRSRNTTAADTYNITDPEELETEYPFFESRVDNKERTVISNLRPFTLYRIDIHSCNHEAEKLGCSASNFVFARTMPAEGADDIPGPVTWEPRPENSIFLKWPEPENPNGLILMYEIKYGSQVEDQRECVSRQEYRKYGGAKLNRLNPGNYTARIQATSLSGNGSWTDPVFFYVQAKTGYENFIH
# Experimental: Binding Assays. […] Detection of the receptor ligand interaction was measured in an amplified luminescent proximity homogeneous assay (ALPHAScreen; BioSignal-Packard, Montreal). The assay was performed in 384-well Nunc™ white polystyrene microplates (Nalge Nunc International, Naperville, Ill.) with a final volume of 40 μL. […] Each concentration of competitor was assayed in duplicate. Non-specific binding was determined in the presence of 3×10^−5 M hIGF-1. The second step of the assay was to add acceptor beads and the incubation continued for 0.5 hr. The final step was to add donor beads and the incubation continued for an additional 1 hr. […] Primary data were background corrected, normalized to buffer controls and then expressed as % Specific Binding. The data were fit to a four-parameter non-linear regression analysis (y=min+(max-min)/(1+10̂((log IC50-x)*Hillslope))), which was used to determine IC50 values. The Z′-factor for this assay is greater than 0.7 (Z′=1-(3σ++3σ−)/|μ+−μ−|) and the signal-to-background (SB) ratio was between 40 and 70.
# MCF7 cells [2] = molecular target: T2, MCF7 cells (Homo sapiens, UniProt P08069); assay: antagonism assay in starved MCF7 cells, luminescence viability, 72 hrs; format: cell-based; settings: read-out: Cell; Table 11
# T2 sequence (P08069 31-736): as the sequence (P08069 31-736 limits assumed) above
# Experimental: Additional binding and antagonism assays using candidate peptides were performed. […] Cell viability was determined by luminescence assay and IC50 was calculated using standard techniques.
# SW480 cells = format: cell-based
# Experimental: (§1) For cell growth/density studies, a mitochondrial activity assay was used, as exemplified by the following. Cells (SW480, MCF-7S8) were propagated in complete medium (DME: F12, 10% FCS (SW 480) or 5% FCS (MCF-7S8, P/S)), trypsinized, and seeded in 96 well plates as 10,000 cells/well in medium with 0.5% FCS. All wells in the periphery were omitted and only filled with medium. […] All treatments are made in triplicates. […] Treatment was continued for 48 hours (SW480 cells) or 72 hours (MCF-7S8 cells) before quantification of the cell density. Media was exchanged each day. Media and peptides were diluted in DMSO. When measuring cell density, the volume of each well was adjusted to […] Pre-diluted WST-1 (1 ml+1.5 ml DME:F12) was added as 25 μL to each well including background samples. Three wells with media only served as background controls. The cells were incubated for 90 min protected against light in an incubator.
# MCF-7S8 cells = MCF-7S8 cells (Homo sapiens, UniProt P08069); assay: cell growth/density, mitochondrial activity assay (WST-1), MCF-7S8; format: cell-based; settings: one experiment only
# Sequence of MCF-7S8 cells (P08069 31-736): as the sequence (P08069 31-736 limits assumed) above
# Experimental: as §1
# IRS-1 [3] = assay: IRS-1 phosphorylation in MCF7 cells (immunoprecipitation, Western blot); format: cell-based, human; settings: 0.5 nM IGF-1, 10 minutes, peptides 30 μM
# Experimental: Preparation of whole-cell lysates, immunoprecipitation, and Western blot analysis. For qualitative IRS-1 phosphorylation analysis, MCF7 cells in monolayer cultures (about 80% of confluency) were used. […] After treatment, cells were rinsed twice with ice-cold PBS containing 0.2 mM PMSF and 1 mM Na3VO4 (all from SIGMA). Cells were scraped into the same buffer and pelleted by centrifugation at 200 g for 3 min. […] Cell lysates were cleared by centrifugation for 5 min at 14 000 g and the resulting supernatant was snap-frozen in EtOH-dry ice and stored at −80° C. The protein concentration was determined using the Dc Protein Assay Kit (Bio-Rad Laboratories).
# Immunoprecipitations were performed with pre-cleared lysates for 4 hours at […] using 0.3-0.5 mg of total protein with 1 μg of polyclonal anti-IRS-1 antibody (Upstate Biotechnology), and 25 μL of Protein A/agarose slurry (SIGMA). Agarose beads with immobilized proteins were washed 3 times with IP wash buffer (50 mM Tris pH 7.5 (GibcoBRL), 150 mM NaCl, 1 mM Na3VO4, 0.2 mM PMSF). […]
# Immunoprecipitates were subjected to SDS-PAGE on 4-15% Tris-HCl Ready Gels and transferred to Trans-Blot Transfer Medium nitrocellulose membranes (both from Bio-Rad Laboratories). […] Blots were exposed to an enhanced […] substrate (ECL Western Blotting Analysis System, Amersham Pharmacia Biotech). […]
# MCF7 cells [4] = molecular target: T2, MCF7 cells; assay: cell assay (WST-1), antagonism of IGF-1, MCF7; format: cell-based; settings: 5×10^−8 M IGF-1; 72 h; FIG. 10B
# Experimental: (§2) Cell Assays. MCF7 or MiaPaCa cells were plated in 96 well plates at a concentration of 3×10^3 cells/well in 75 μL of serum-free RPMI-1640 and incubated overnight at 37° C. Dilutions of the peptides were prepared in a separate working plate and 75 μL added to the cells. […] Plates were incubated for 48-72 hours at 37° C. Viability was measured by the addition of 10 μL WST-1/well (Roche) as per the manufacturer's instructions.
# The cells were treated as described in the materials and methods section. […] The data are presented as percent inhibition and to determine binding kinetic parameters data were fit to a four-parameter logistic equation.
# MiaPaCa cells = assay: cell assay (WST-1), antagonism of IGF-1, MiaPaCa; format: cell-based, human; settings: 5×10^−8 M IGF-1; 72 h; FIG. 10C
# Experimental: as §2
# [5] = system: SGBS adipocytes transfected with HIR-encoding DNA; assay: 3H glucose incorporation (insulin agonist activity) in SGBS adipocytes; format: cell-based
# Experimental: Insulin increases uptake of ^3H glucose into adipocytes and its conversion into lipid. Incorporation of ^3H into the lipid phase was determined by partitioning of lipid phase into a scintillant mixture, which excludes water-soluble ^3H products. […] The results are expressed as increase relative to full insulin response.
# insulin receptor/IGF-1R = assay: tyrosine phosphorylation of insulin receptor/IGF-1R in L6-hIR cells (Western blot); format: cell-based
# PKB/Akt = assay: downstream signaling in L6 cells: PKB/Akt; format: cell-based; settings: 3 nM IGF-1, read-out: PKB/Akt, IC50 for down regulation of the stimulation to the basal level
# Experimental: (§3) The tyrosine phosphorylation of IRS signaling (the 180 kDa band on a tyrosine phosphor Western blot) as well as activation of effectors MAPK 44 and 42 and PKB were analyzed by using antibodies specific for their active forms using methods substantially similar to those described in Example 14 of the '246 PCT application.
# (§4) The effect of select peptides on downstream signaling (MAPK44, MAPK42, PKB/Akt, IRS-1, and IGF-1R) was also measured by studying the signaling in L6 cells predominantly expressing IGF-1R and very limited insulin receptors. […] The antagonistic effect of the peptides can be seen to affect all the downstream signaling from the IGF-1R.
# MAPK44 = assay: downstream signaling in L6 cells: MAPK44; format: cell-based; settings: 3 nM IGF-1, read-out: MAPK44, IC50 for down regulation of the stimulation to the basal level
# Experimental: as §3, §4
# MAPK42 = assay: downstream signaling in L6 cells: MAPK42; format: cell-based; settings: 3 nM IGF-1, read-out: MAPK42, IC50 for down regulation of the stimulation to the basal level
# Experimental: as §3, §4
# IGF-IR = assay: downstream signaling in L6 cells: IGF-IR; format: cell-based; settings: 3 nM IGF-1, read-out: IGF-IR, IC50 for down regulation of the stimulation to the basal level
# Experimental: as §3, §4
# IRS-1 [6] = assay: downstream signaling: IRS-1 tyrosine phosphorylation; format: cell-based
# Experimental: as §3, §4
# [7] = molecular target: T3, IGF-1R on L6 (with mainly symmetric IGF-1R) (Rattus norvegicus, UniProt P24062); assay: displacement of IGF-1 binding on L6 cells
# T3 construct: L6 cells predominantly expressing IGF-1R and very limited insulin receptors; endogenous in cells; host or cells: L6 cells
# T3 sequence (P24062 31-737 limits assumed): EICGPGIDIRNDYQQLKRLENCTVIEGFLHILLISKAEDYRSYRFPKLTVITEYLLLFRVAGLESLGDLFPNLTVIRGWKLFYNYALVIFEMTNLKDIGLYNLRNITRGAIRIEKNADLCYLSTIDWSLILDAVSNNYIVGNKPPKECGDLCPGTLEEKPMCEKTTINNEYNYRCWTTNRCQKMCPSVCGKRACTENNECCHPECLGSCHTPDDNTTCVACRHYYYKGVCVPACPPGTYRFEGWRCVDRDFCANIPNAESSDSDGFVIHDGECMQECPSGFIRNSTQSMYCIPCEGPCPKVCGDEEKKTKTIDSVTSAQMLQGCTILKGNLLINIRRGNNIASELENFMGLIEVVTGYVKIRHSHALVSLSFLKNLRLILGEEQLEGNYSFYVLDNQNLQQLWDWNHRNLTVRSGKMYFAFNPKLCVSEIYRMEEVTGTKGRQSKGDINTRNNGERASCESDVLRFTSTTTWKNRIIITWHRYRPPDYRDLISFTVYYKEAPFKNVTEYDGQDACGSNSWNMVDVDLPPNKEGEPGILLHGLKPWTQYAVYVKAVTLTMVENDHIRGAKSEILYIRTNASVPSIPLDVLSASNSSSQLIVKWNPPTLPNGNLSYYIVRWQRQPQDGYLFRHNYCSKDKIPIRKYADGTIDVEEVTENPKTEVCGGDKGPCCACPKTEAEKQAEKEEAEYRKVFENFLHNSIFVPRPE
# T3 sequence (P24062 742-1370 limits assumed): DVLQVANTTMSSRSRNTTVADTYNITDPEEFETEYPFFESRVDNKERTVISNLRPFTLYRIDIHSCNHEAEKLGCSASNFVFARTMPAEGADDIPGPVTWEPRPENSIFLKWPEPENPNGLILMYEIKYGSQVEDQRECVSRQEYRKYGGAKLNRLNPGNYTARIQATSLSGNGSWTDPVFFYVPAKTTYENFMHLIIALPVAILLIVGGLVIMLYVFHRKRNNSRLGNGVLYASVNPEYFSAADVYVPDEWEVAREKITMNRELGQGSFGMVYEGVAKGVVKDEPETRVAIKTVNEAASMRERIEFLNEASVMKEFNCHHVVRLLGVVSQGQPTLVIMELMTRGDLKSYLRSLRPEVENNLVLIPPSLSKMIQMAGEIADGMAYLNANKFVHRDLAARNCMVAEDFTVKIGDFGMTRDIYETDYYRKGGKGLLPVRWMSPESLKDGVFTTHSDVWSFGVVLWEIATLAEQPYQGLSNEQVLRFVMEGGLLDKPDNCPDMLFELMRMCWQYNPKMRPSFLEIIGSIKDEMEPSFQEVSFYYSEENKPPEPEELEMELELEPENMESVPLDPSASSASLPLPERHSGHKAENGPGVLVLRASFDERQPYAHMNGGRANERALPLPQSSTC
# [8] = system: L6 hIR (with mainly hybrid IGF-1R/IR); assay: displacement of IGF-1 binding on L6 hIR cells
# Sequence of L6 hIR (with mainly hybrid IGF-1R/IR) (P24062 31-737 limits assumed): as the sequence (P24062 31-737 limits assumed) above
# Sequence of L6 hIR (with mainly hybrid IGF-1R/IR) (P24062 742-1370 limits assumed): as the sequence (P24062 742-1370 limits assumed) above
# [9] = system: IGF-1R, IRS-1, MAPK42/44 and PKB/Akt; assay: IGF-1 induced phosphorylation (IGF-1R, IRS-1, MAPK42/44, PKB/Akt) in L6 and L6 hIR cells, summary in description; format: cell-based; settings: read-out: phosphorylation of IGF-1R and MAPK42/44 in response to IGF-1 treatment, IC50
# Experimental: The activation of HIR or HIGF-1R in adipocytes was measured by stimulating the cells and studying the level of tyrosine phosphorylation (Western blot) of the insulin receptor/IGF-1R. […] The IGF-1R will be present in symmetric homodimer complex as well as in the heterodimer with half insulin receptor.
# as §3, §4
# [10] = read-out: IC50 in SW480 (M) in presence of IGF-1/alone: in presence of IGF-1, first value of the cell: concentration needed to blunt the effect of 10 nM IGF-1, cells in words only = effect as reported, 48 hours
molecule,measurement,setting,value
CC(C)C[C@H](NC(=O)[C@H](CS)NC(=O)[C@H](CO)NC(=O)[C@H](Cc1ccc(O)cc1)NC(=O)[C@H](Cc1ccccc1)NC(=O)[C@@H](N)[C@@H](C)O)C(=O)N[C@@H](C)C(=O)N[C@@H](CO)C(=O)N[C@@H](CC(C)C)C(=O)N[C@@H](CC(C)C)C(=O)N[C@H](C(=O)NCC(=O)N[C@H](C(=O)N1CCC[C@H]1C(=O)N[C@@H](CCC(N)=O)C(=O)N1CCC[C@H]1C(=O)N[C@@H](CC(N)=O)C(=O)N[C@@H](CCCNC(=N)N)C(=O)NCC(=O)N1CCC[C@H]1C(=O)N[C@@H](Cc1c[nH]c2ccccc12)C(=O)N[C@@H](CCC(=O)O)C(=O)N[C@@H](CCCNC(=N)N)C(=O)N[C@@H](CS)C(=O)N[C@@H](CCCNC(=N)N)C(=O)O)[C@@H](C)O)[C@@H](C)O [RP6] (H-TFYSCLASLLTGTPQPNRGPWERCR-OH),IC50,[1],2700 nM
same,IC50,MCF7 cells [2],9000 nM
ESYGDCRDRPCGDAPNFYDWFVQQASE [Peptide F270],IC50 in SW480 (M) in presence of IGF-1/alone: in presence of IGF-1,"SW480 cells; first value of the cell: concentration needed to blunt the effect of 10 nM IGF-1, cells in words only = effect as reported, 48 hours",agonistic?
same,IC50,SW480 cells; [10],2e-06 M
same,effect on MCF-7,MCF-7S8 cells,agonistic effects
SFYSCLESLVNGPAEKSRGQWDGCRK [Peptide F250],IC50,SW480 cells; [10],2e-06 M and 1e-06 M
same,IGF-1-induced phosphorylation of IRS-1,IRS-1 [3],inhibited
same,competition of IGF-1 binding,[1]; FIG. 10A,competes IGF-1 binding
same,antagonism of IGF-1 activity in MCF-7 cells,MCF7 cells [4],antagonism of IGF-1 activity in MCF-7 cells
same,antagonism of IGF-1 activity in MiaPaCa cells,MiaPaCa cells,antagonism of IGF-1 activity in MiaPaCa cells
SFYSCLESLVQGPAEKSRGQWEGCRK [Peptide F293],IC50,"SW480 cells; read-out: IC50 in SW480 (M) in presence of IGF-1/alone: alone, second value of the cell: concentration needed to inhibit basal level in 0.5% FCS",1e-07 M
same,"inhibition of basal growth of SW480, doses",SW480 cells; without IGF-1,inhibition of basal growth was observed
same,effect on glucose uptake induced by insulin or IGF-1,"[5]; SGBS adipocytes, FIGS. 1A and 1B",neither peptide F138 nor peptide F293 has any substantial effect on glucose uptake induced by insulin or IGF-1
same,doses not affecting glucose uptake in response to insulin/IGF-1,[5]; SGBS cells,< 5 µM
same,inhibition of IGF-1 induced versus insulin induced phosphorylation,insulin receptor/IGF-1R,more effective on IGF-1 induced phosphorylation as compared to insulin induced phosphorylation
same,effect on insulin stimulated tyrosine phosphorylation,"insulin receptor/IGF-1R; 2 μM peptide, 10 min",marginal effect
same,effect on tyrosine phosphorylation by IGF-1,"insulin receptor/IGF-1R; 2 μM peptide, 10 min",inhibited
same,IC50,PKB/Akt,> 1000 nM
same,IC50,MAPK44,500 nM
same,IC50,MAPK42,1000 nM
same,IC50,IGF-IR,500 nM
same,effect on IGF-1 stimulated IRS-1 phosphorylation,"IRS-1 [6]; FIG. 4, 10 min",clearly inhibits the IGF-1 stimulated IRS-1 phosphorylation
same,IC50,"IRS-1 [6]; L6 cells, 3 nM IGF-1, read-out: IRS-1, IC50 for down regulation of the stimulation to the basal level",> 1000 nM
same,concentration displacing IGF-1 binding to IGF-1R on L6,[7],150 nM
same,concentration displacing IGF-1 binding in L6 hIR,[8],150 nM
same,IC50,[9],500 nM
